Where a name gives a salt, the structure may show the parent alone.
How the values were obtained:
Type in all cases: in vivo
[1] = test system: Kochia (Kochia scoparia L.); assay: Greenhouse kochia fresh weight reduction from 2,4-D, dicamba, bentazon as influenced by adjuvants; conditions: no adjuvant
Protocol: Kochia (Kochia scoparia L.) was grown in plastic cones containing a commercial peat-based greenhouse mixture with 5 plants per cone. All growing conditions and herbicide application procedures were similar as explained in Example 2. Herbicides were applied to kochia at the 4 to 6-leaf stage. Herbicide formulation and rates of herbicides and adjuvants are specified in Table 7. Plants were evaluated for herbicide injury and fresh weight reduction 14 days after herbicide application. Data presented are the means of two experiments with four replicates per experiment.
The adjuvants, Activator 90. RTM and Composition 1, were added into soft and hard water carriers (volume per volume concentrations shown in TABLE 7) with 2,4-D at 220 g ae/ha, dicamba at 75 g ae/ha, or bentazon at 200 g ai/ha to prepare the final aqueous spray mixture applied at 80 L/ha on 4 to 6-leaf kochia. TABLE 7 includes the results of assessment made 2 weeks after treatment.

[2] = test system: Wheat (Triticum aestivum L.); assay: Greenhouse wheat fresh weight reduction from glyphosate as influenced by adjuvants; conditions: adjuvant 1%
Protocol: (§1) Wheat (Triticum aestivum L.), velvetleaf (Abutilion theophrasti Medicus), Roundup Ready.RTM soybean (Glycine max (L.) Merr.), and Roundup Ready.RTM corn (Zea mays L.) were grown in plastic cones containing a commercial peat-based greenhouse mixture. Plants were thinned 1 wk after emergence to seven wheat, three velvetlaf, or one corn or soybean per cone and were watered and fertilized as needed for healthy growth. Natural daylight was supplemented for 16 h photoperiod with metal halide lamps with the light intensity of 450 μE/m^2/s. The greenhouse was maintained at 20° C. at night and 25 ±5° C. during the day. Glyphosate with adjuvants was applied to three-leaf wheat and corn, first-pair leaf velvetleaf, and to first-trifoliolate-leaf soybean using a cabinet laboratory sprayer that delivered 80 L/ha through a 8001 flat fan nozzle at 280 kPa generated by compressed air. Distilled water, Fargo tap water (soft), and two well waters from the Devils Lake, ND, area (hard and high sodium content, respectively) were used as spray carriers. Ion concentrations in these waters are described in TABLE 1. Formulation type and rates of glyphosate and adjuvants are specified in each table. In all greenhouse studies, plants were evaluated for herbicide injury and adjuvant efficacy 14 days after herbicide application. Data presented are the means of two experiments with four replicates per experiment.
The adjuvants, ammonium sulfate, Activator 90. RTM, and mixtures thereof, Surfate.RTM, and Composition 1 were added into water [weight (for solids) or volume (for liquids) per volume concentrations shown in TABLE 2] with glyphosate at 100 g ae/ha to prepare the final aqueous spray mixture applied at 80 L/ha on 2 to 3 leaf wheat. Calcium chloride was added to distilled water to get 0, 125, 250, and 500 mg/L calcium cations. TABLE 2 includes the results of assessment made 2 weeks after treatment.
The adjuvants, Activator 90. RTM, MON 0818, Atplus GTM7, Atplus GTM10 and their mixtures with ammonium sulfate, Surfate.RTM, and Composition 1 were added into three water carriers [weight (for solids) or volume (for liquids) per volume concentrations shown in TABLE 3] with glyphosate (100 g ae/ha) to prepare the final aqueous spray mixture applied at 80 L/ha on 2 to 3 leaf wheat. TABLE 3 includes the results of assessment made 2 weeks after treatment.
The adjuvants, ammonium sulfate, Activator 90.RTM, and mixtures thereof, Surfate.RTM, and Composition 1 were added into two water carriers (weight [for solids] or volume [for liquids] per volume concentrations shown in TABLE 4) with three glyphosate formulations, all at 125 g ae/ha, to.prepare the final aqueous spray mixture applied at 80 L/ha on 2 to 3 leaf wheat. TABLE 4 includes the results of assessment made 2 weeks after treatment.
Various iminodipropionate, betaine, imidazoline, and amine oxide amphoteric surfactants applied with ammonium sulfate and adjuvant formulations containing surfactant and ammonium sulfate, including Composition 1 of present invention, were added into hard water carrier [weight (for solids) or volume (for liquids) per volume concentrations shown in TABLE 5] with glyphosate at 125 g ae/ha to prepare the final aqueous spray mixture applied at 80 L/ha on 2 to 3 leaf wheat. TABLE 5 includes the results of assessment made 2 weeks after treatment.

[3] = test system: velvetleaf (Abutilion theophrasti Medicus); assay: Greenhouse velvetleaf fresh weight reduction from glyphosate as influenced by adjuvants; conditions: glyphosate (Roundup Ultra Max.RTM) 150 g ae/ha; hard water (Devils Lake, ND, No. 2 - well water); adjuvant 1%
Protocol: as §1, with “experiment. […]” for “experiment.”

O=C(O)COc1ccc(Cl)cc1Cl [2,4-D-dimethylamine salt, (2,4-dichlorophenoxy)acetic acid]
percent fresh weigh reduction ([1]; 2,4-D-dimethylamine salt 220 g ae/ha, water Devils Lake No. 1 (well)): 10% | percent fresh weigh reduction ([1]; 2,4-D-dimethylamine salt 220 g ae/ha, water Fargo, ND (tap)): 20%

N.N.O=S(=O)(O)O [Ammonium sulfate]
% fresh weight reduction ([2]; Roundup Custom.RTM 125 g ae/ha, water Devils Lake No. 1 (well)): 23% | % fresh weight reduction ([2]; Roundup Custom.RTM 125 g ae/ha, water Fargo (tap)): 68% | % fresh weight reduction ([2]; Roundup Ultra Max.RTM 125 g ae/ha, water Devils Lake No. 1 (well)): 43% | % fresh weight reduction ([2]; Roundup Ultra Max.RTM 125 g ae/ha, water Fargo (tap)): 54% | % fresh weight reduction ([2]; Touchdown.RTM 125 g ae/ha, water Devils Lake No. 1 (well)): 24% | % fresh weight reduction ([2]; Touchdown.RTM 125 g ae/ha, water Fargo (tap)): 71% | % fresh weight reduction ([2]; glyphosate 100 g ae/ha (Roundup Ultra Max.RTM), Ca2+ 0 mg/L, 2 weeks after treatment): 65% | % fresh weight reduction ([2]; glyphosate 100 g ae/ha (Roundup Ultra Max.RTM), Ca2+ 125 mg/L, 2 weeks after treatment): 72% | % fresh weight reduction ([2]; glyphosate 100 g ae/ha (Roundup Ultra Max.RTM), Ca2+ 250 mg/L, 2 weeks after treatment): 73% | % fresh weight reduction ([2]; glyphosate 100 g ae/ha (Roundup Ultra Max.RTM), Ca2+ 500 mg/L, 2 weeks after treatment): 64% | Fresh weight reduction % [3]: 54%

CC(C)N1C(=O)c2ccccc2NS1(=O)=O [bentazon-sodium salt, 3-(1-methylethyl)-(1H)-2,1,3-benzothiadiazin-4(3H)-one 2,2-dioxide]
percent fresh weigh reduction ([1]; bentazon-sodium salt 200 g ai/ha, water Devils Lake No. 1 (well)): 5% | percent fresh weigh reduction ([1]; bentazon-sodium salt 200 g ai/ha, water Fargo, ND (tap)): 20%

COc1c(Cl)ccc(Cl)c1C(=O)O [dicamba-sodium salt, 3,6-dichloro-2-methoxybenzoic acid]
percent fresh weigh reduction ([1]; dicamba-sodium salt 75 g ae/ha, water Devils Lake No. 1 (well)): 9% | percent fresh weigh reduction ([1]; dicamba-sodium salt 75 g ae/ha, water Fargo, ND (tap)): 12%
